Assay results published in paper PMC9767416, “Discovery of small molecule mechanistic target of rapamycin inhibitors as anti-aging and anti-cancer therapeutics” (Frontiers in Aging Neuroscience, 2022).

Tests used:
C57BL/6 (B6) male mice [1] = assay: Spleen cell populations by flow cytometry in the tolerability study; format: in vivo; settings: for CD4+ spleen cells / CD8+ spleen cells / Cd11b+/Gr-1+ spleen cells: percentage from the CD45+ cells
Procedure: (§1) During the experiments, mice behavior and possible apparent signs of toxicity were monitored daily. The body weights were determined on days 0, 4, and 8. On day 8, blood (25 μL) was withdrawn using a capillary pipette containing anticoagulant (heparin) from the retroorbital sinus into EDTA-containing tubes. Basic hematological parameters were measured using the Mindray BC-5300 Vet. Mice were then killed, autopsied, and abdominal organs (spleen, liver, and kidney) were removed for visual examination and imaging by a digital camera. Single-cell suspensions from the spleens were prepared by homogenization through a cell strainer (70 μm; BD Biosciences, San Jose, CA, USA). Erythrocytes were osmotically lysed using ammonium chloride-potassium lysis buffer, and the cell suspensions were washed three times in the RPMI-1640 medium and used for further analysis by flow cytometry for selected cell populations.
The cellularity of selected spleen cell populations was analyzed by flow cytometry. Cell suspensions were washed and preincubated with anti-CD16/CD32 (2.4G2) antibody to minimize non-specific binding at 4°C for 15 min following the washing step and incubation with labeled primary antibody at 4°C for 30 min. Relevant isotype controls of irrelevant specificity were used. FACS buffer (PBS, 1% FBS, 0.1% NaN3) was used for all washing steps and analysis. The following antibodies were used for FACS analyses: BV421 anti-mouse CD45 (30-F11), PE anti-mouse CD8α (53-6.7), BV711 anti-mouse CD4 (RM4-5), APC anti-mouse Ly-6g/Ly-6C (Gr-1) (RB6-8C5), BV711 anti-mouse CD11b (M1/70). FACS analysis was performed using a flow cytometer Symphony (BD Biosciences) and analyzed using FlowJo 10 software (FlowJo LLC, Ashland, OR, USA).

[2] = test system: pro-inflammatory cytokines of SASP; assay: Secretion of pro-inflammatory cytokines (SASP) by senescent cells; format: cell-based, human; settings: TMZ-induced U87 senescent cells; 50 μM; 24 h
Procedure: To determine the secretion of selected inflammatory cytokines into culture media, cell cultures were exposed to tested compounds (50 μM) for 24 h. Then the culture medium was removed, cells were washed three times with 1 mL PBS, and a fresh medium without FBS was added for 24 h. Detection of cytokines in conditioned culture media was done by Human Inflammation 11-Plex Panel: IFNγ, IL-1α, IL-1β, IL-6, IL-8, IL-10, IL-12p70, IL-27, IP-10, MCP-1, and TNFα (AimPlex Biosciences, Inc.) using a BD FACSVerseTM flow cytometer (BD Biosciences, Franklin Lakes, NJ, USA) according to manufacturer’s protocol. Data were analyzed using FlowJo 10 software (FlowJo LLC, Ashland, OR, USA).
Importantly, compound 3 decreased IL-1α, IL-8, and MCP-1 consistently in all tested senescence models. The effect of compound 3 on IL-6 was variable.

[3] = Solubility by nephelometry (water, buffer pH 7.4); format: physicochemical; settings: for logSpH 7.4: buffer pH 7.4; for Sol. (buffer 7.4): sodium phosphate buffer pH 7.4, nephelometry; for Sol. (H2O): ultrapure water, nephelometry; for logSH2O: water
Procedure: Compounds’ solubility was measured by the NEPHELOstar microplate instrument (BMG Labtech, Offenburg, Germany). Stock solutions were prepared by dissolving the tested compounds in ultrapure water or sodium phosphate buffer (pH 7.4) to obtain a concentration of 160 and 1,000 μg/mL. Each stock solution was sonicated at full power by Hielscher UP100H needle ultrasonic processor (Teltow, Germany) before loading into NEPHELOstar instrument injector A. Ultrapure water or sodium phosphate buffer was loaded into injector B. Compound was diluted in 48 wells in 0–160 or 0–1,000 μg/mL range and subsequently shook for 30 s. Each well was scanned with 80% laser power in matrix 3 × 3, beam width 2 mm, and obtained data were evaluated in GraphPad Prism 7.03 (GraphPad Software, San Diego, CA, USA) using segmental linear regression.

C57BL/6 (B6) male mice [4] = assay: Blood counts in the tolerability study; format: in vivo; settings: mice, blood day 8; for Eos / HOT / MPV / Neu / PCT / PDW / RBC / RDW-CV / lvm / PLT / WBC / MCV / RDW-SD / HGB / MCHC / MCH / Mon: AVG; for PLT / WBC: in 10^9/L (unit assumed); for MCV / RDW-SD: in fL (unit assumed); for HGB / MCHC: in g/L (unit assumed); for MCH: in pg (unit assumed); for Mon: unit assumed
Procedure: Compounds were dissolved in 20 μL DMSO and completed into 200 μL with corn oil.
as §1

[5] = test system: mTORC1 substrate p70 S6 kinase (Thr389 phosphorylation); assay: Immunoblot of phospho-p70 S6K (Thr389), mTORC1 activity in cells; format: cell-based, human; settings: BJ cells; 100 μM; 1 and 5 h

For `CC(C)n1nc(-c2cc3cc(O)ccc3[nH]2)c2c(N)ncnc21` [Torkinib, torkinib], the “CD45+ spleen cells” value (C57BL/6 (B6) male mice [1]; 5 mg/kg p.o. days 0, 3, 5, spleen day 8) was 92.0%, the “CD4+ spleen cells” value (C57BL/6 (B6) male mice [1]; 5 mg/kg p.o.) was 15.5% and the “CD8+ spleen cells” value (C57BL/6 (B6) male mice [1]; 5 mg/kg p.o.) was 10.4%. For the same compound, the “Cd11b+/Gr-1+ spleen cells” value (C57BL/6 (B6) male mice [1]; 5 mg/kg p.o.) was 0.9%, the “CD45+ spleen cells” value (C57BL/6 (B6) male mice [1]; 25 mg/kg p.o. days 0, 3, 5, spleen day 8) was 96.7% and the “CD4+ spleen cells” value (C57BL/6 (B6) male mice [1]; 25 mg/kg p.o.) was 15.4%. The “CD8+ spleen cells” value (C57BL/6 (B6) male mice [1]; 25 mg/kg p.o.) was 9.8%, the “Cd11b+/Gr-1+ spleen cells” value (C57BL/6 (B6) male mice [1]; 25 mg/kg p.o.) was 0.6% and the “CD45+ spleen cells” value (C57BL/6 (B6) male mice [1]; 50 mg/kg p.o. days 0, 3, 5, spleen day 8) was 84.0%. For the same compound, the “CD4+ spleen cells” value (C57BL/6 (B6) male mice [1]; 50 mg/kg p.o.) was 16.6%, the “CD8+ spleen cells” value (C57BL/6 (B6) male mice [1]; 50 mg/kg p.o.) was 10.2% and the “Cd11b+/Gr-1+ spleen cells” value (C57BL/6 (B6) male mice [1]; 50 mg/kg p.o.) was 1.3%. The “all detectable cytokines (IL-1α, IL-1β, IL-6, IL-8, IL-27, MCP-1, TNFα)” value [2] was “suppressed”, the “logSpH 7.4” value [3] was under −4.71 and the “logSpH 7.4” value ([3]; listed as torkinib) was under −4.60. The “Sol. (buffer 7.4)” value [3] was under 6 µg/mL, the “Sol. (buffer 7.4)” value ([3]; listed as torkinib) was “lower than 6 μg/mL” and the “Sol. (H2O)” value [3] was under 6 µg/mL. The “Sol. (H2O)” value ([3]; listed as torkinib) was “lower than 6 μg/mL”, the logSH2O [3] was under −4.71 and the logSH2O ([3]; listed as torkinib) was under −4.60. For the same compound, the Eos (C57BL/6 (B6) male mice [4]; 5 mg/kg p.o. days 0, 3, 5) was 0.04, the HOT (C57BL/6 (B6) male mice [4]; 5 mg/kg p.o. days 0, 3, 5) was 0.49 and the MPV (C57BL/6 (B6) male mice [4]; 5 mg/kg p.o. days 0, 3, 5) was 5.33. The Neu (C57BL/6 (B6) male mice [4]; 5 mg/kg p.o. days 0, 3, 5) was 0.99, the PCT (C57BL/6 (B6) male mice [4]; 5 mg/kg p.o. days 0, 3, 5) was 3.59 and the PDW (C57BL/6 (B6) male mice [4]; 5 mg/kg p.o. days 0, 3, 5) was 14.57. The RBC (C57BL/6 (B6) male mice [4]; 5 mg/kg p.o. days 0, 3, 5) was 9.25 10^12/L, the RDW-CV (C57BL/6 (B6) male mice [4]; 5 mg/kg p.o. days 0, 3, 5) was 0.14 and the lvm (C57BL/6 (B6) male mice [4]; 5 mg/kg p.o. days 0, 3, 5) was 8.67. For the same compound, the PLT (C57BL/6 (B6) male mice [4]; 5 mg/kg p.o. days 0, 3, 5) was 690.67, the WBC (C57BL/6 (B6) male mice [4]; 5 mg/kg p.o. days 0, 3, 5) was 10.43 and the MCV (C57BL/6 (B6) male mice [4]; 5 mg/kg p.o. days 0, 3, 5) was 53.73. It also gave an RDW-SD (C57BL/6 (B6) male mice [4]; 5 mg/kg p.o. days 0, 3, 5) of 31.77, an HGB (C57BL/6 (B6) male mice [4]; 5 mg/kg p.o. days 0, 3, 5) of 146.00 and an MCHC (C57BL/6 (B6) male mice [4]; 5 mg/kg p.o. days 0, 3, 5) of 296.67. The MCH (C57BL/6 (B6) male mice [4]; 5 mg/kg p.o. days 0, 3, 5) was 15.97, the Mon (C57BL/6 (B6) male mice [4]; 5 mg/kg p.o. days 0, 3, 5) was 0.73 10^9/L and the Eos (C57BL/6 (B6) male mice [4]; 25 mg/kg p.o. days 0, 3, 5) was 0.08. For the same compound, the HOT (C57BL/6 (B6) male mice [4]; 25 mg/kg p.o. days 0, 3, 5) was 0.52, the MPV (C57BL/6 (B6) male mice [4]; 25 mg/kg p.o. days 0, 3, 5) was 5.30 and the Neu (C57BL/6 (B6) male mice [4]; 25 mg/kg p.o. days 0, 3, 5) was 0.79. For the same compound, the PCT (C57BL/6 (B6) male mice [4]; 25 mg/kg p.o. days 0, 3, 5) was 3.79, the PDW (C57BL/6 (B6) male mice [4]; 25 mg/kg p.o. days 0, 3, 5) was 14.73 and the RBC (C57BL/6 (B6) male mice [4]; 25 mg/kg p.o. days 0, 3, 5) was 9.96 10^12/L. It also gave an RDW-CV (C57BL/6 (B6) male mice [4]; 25 mg/kg p.o. days 0, 3, 5) of 0.14, a lvm (C57BL/6 (B6) male mice [4]; 25 mg/kg p.o. days 0, 3, 5) of 6.68 and a PLT (C57BL/6 (B6) male mice [4]; 25 mg/kg p.o. days 0, 3, 5) of 712.00. It also gave a WBC (C57BL/6 (B6) male mice [4]; 25 mg/kg p.o. days 0, 3, 5) of 8.14, an MCV (C57BL/6 (B6) male mice [4]; 25 mg/kg p.o. days 0, 3, 5) of 51.90 and an RDW-SD (C57BL/6 (B6) male mice [4]; 25 mg/kg p.o. days 0, 3, 5) of 29.23. It also gave an HGB (C57BL/6 (B6) male mice [4]; 25 mg/kg p.o. days 0, 3, 5) of 154.00, an MCHC (C57BL/6 (B6) male mice [4]; 25 mg/kg p.o. days 0, 3, 5) of 298.00 and an MCH (C57BL/6 (B6) male mice [4]; 25 mg/kg p.o. days 0, 3, 5) of 15.50. For the same compound, the Mon (C57BL/6 (B6) male mice [4]; 25 mg/kg p.o. days 0, 3, 5) was 0.59 10^9/L, the Eos (C57BL/6 (B6) male mice [4]; 50 mg/kg p.o. days 0, 3, 5) was 0.04 and the HOT (C57BL/6 (B6) male mice [4]; 50 mg/kg p.o. days 0, 3, 5) was 0.53. For the same compound, the MPV (C57BL/6 (B6) male mice [4]; 50 mg/kg p.o. days 0, 3, 5) was 5.43, the Neu (C57BL/6 (B6) male mice [4]; 50 mg/kg p.o. days 0, 3, 5) was 1.25 and the PCT (C57BL/6 (B6) male mice [4]; 50 mg/kg p.o. days 0, 3, 5) was 4.73. For the same compound, the PDW (C57BL/6 (B6) male mice [4]; 50 mg/kg p.o. days 0, 3, 5) was 14.67, the RBC (C57BL/6 (B6) male mice [4]; 50 mg/kg p.o. days 0, 3, 5) was 9.95 10^12/L and the RDW-CV (C57BL/6 (B6) male mice [4]; 50 mg/kg p.o. days 0, 3, 5) was 0.14. The lvm (C57BL/6 (B6) male mice [4]; 50 mg/kg p.o. days 0, 3, 5) was 6.32, the PLT (C57BL/6 (B6) male mice [4]; 50 mg/kg p.o. days 0, 3, 5) was 873.67 and the WBC (C57BL/6 (B6) male mice [4]; 50 mg/kg p.o. days 0, 3, 5) was 8.70. It also gave an MCV (C57BL/6 (B6) male mice [4]; 50 mg/kg p.o. days 0, 3, 5) of 53.27, an RDW-SD (C57BL/6 (B6) male mice [4]; 50 mg/kg p.o. days 0, 3, 5) of 31.07 and an HGB (C57BL/6 (B6) male mice [4]; 50 mg/kg p.o. days 0, 3, 5) of 153.67. For the same compound, the MCHC (C57BL/6 (B6) male mice [4]; 50 mg/kg p.o. days 0, 3, 5) was 290.33, the MCH (C57BL/6 (B6) male mice [4]; 50 mg/kg p.o. days 0, 3, 5) was 15.50 and the Mon (C57BL/6 (B6) male mice [4]; 50 mg/kg p.o. days 0, 3, 5) was 1.09 10^9/L. The “blood count analysis, overall finding” value (C57BL/6 (B6) male mice [4]; p.o. 5, 25 and 50 mg/kg) was “no abnormal changes” and the “effect on Thr389 S6K phosphorylation” value [5] was “inhibitory effect”.
